US11332452B2, “Pesticidal compositions and methods” (priority 2019, dated 2022)

Experiments:
Type in all cases: in vivo
[1] = tested on: Beet Armyworm (Spodoptera exigua, LAPHEG); test: Insecticidal test for beet armyworm (BAW), 128-well diet tray assay; details: 168 h, 50 μg/cm^2 of test compound on artificial diet, second instar larvae, 25° C., five to seven days, average of eight wells, read-out: BAW % Control (or Mortality) rating
Procedure: Insecticidal Test for Beet Armyworm (Spodoptera exigua, LAPHEG) (“BAW”)
(§1) Bioassays on beet armyworm (BAW; Spodoptera exigua: Lepidoptera) are conducted using a 128-well diet tray assay. One to five second instar BAW larvae are placed in each well (3 mL) of the diet tray that had been previously filled with 1 mL of artificial diet to which 50 μg/cm^2 of the test compound (dissolved in 50 μL of 90:10 acetone-water mixture) had been applied (to each of eight wells) and then allowed to dry. Trays are covered with a clear self-adhesive cover, vented to allow gas exchange, and held at 25° C., 14:10 light-dark for five to seven days. Percent mortality is recorded for the larvae in each well; activity in the eight wells is then averaged.

[2] = tested on: Cabbage Looper (Trichloplusia Ni, TRIPNI); test: Insecticidal test for cabbage looper (CL), 128-well diet tray assay; details: Trichoplusia ni, 168 h, read-out: CL % Control (or Mortality) rating
Procedure: Insecticidal Test for Cabbage Looper (Trichloplusia Ni, TRIPNI) (“CL”)
as §1, with “cabbage looper (CL; Trichloplusia ni:” for “beet armyworm (BAW; Spodoptera exigua:”, “CL” for “BAW”

[3] = tested on: Yellow Fever Mosquito (Aedes aegypti, AEDSAE); test: Insecticidal test for yellow fever mosquito (YFM), 96-well plate larval assay; details: from 4000 ppm DMSO master solution, diluted; about 1 day-old larvae; room temperature; scored after 3 days
Procedure: Insecticidal Test for Yellow Fever Mosquito (Aedes aegypti, AEDSAE) (“YFM”)
Master plates containing 400 μg of a molecule dissolved in 100 μL of dimethyl sulfoxide (DMSO) (equivalent to a 4000 ppm solution) are used. A master plate of assembled molecules contains 15 μL per well. To this plate, 135 μL of a 90:10 water/acetone mixture is added to each well. A robot (Biomek® NXP Laboratory Automation Workstation) is programmed to dispense 15 μL aspirations from the master plate into an empty 96-well shallow plate (“daughter” plate). There are 6 reps (“daughter” plates) created per master. The created “daughter” plates are then immediately infested with YFM larvae.
The day before plates are to be treated, mosquito eggs are placed in Millipore water containing liver powder to begin hatching (4 g. into 400 mL). After the “daughter” plates are created using the robot, they are infested with 220 μL of the liver powder/larval mosquito mixture (about 1 day-old larvae). After plates are infested with mosquito larvae, a non-evaporative lid is used to cover the plate to reduce drying. Plates are held at room temperature for 3 days prior to grading. After 3 days, each well is observed and scored based on mortality.

Row | Compound | mortality at 50 µg/cm2 [1] [%] | mortality at 50 µg/cm2 [2] [%] | YFM % Control (or Mortality) rating [3]
1 | Cc1ccc(C(C)C)c(N2C(=O)CS/C2=N\C(=O)Nc2ccc(NNC(=O)c3ccc(OC(F)(F)F)cc3)cc2)c1 [Compound A4, (Z)-1-(3-(2-isopropyl-5-methylphenyl)-4-oxothiazolidin-2-ylidene)-3-(4-(2-(4-(trifluoromethoxy)benzoyl)hydrazinyl)phenyl)urea] | 50 to 100 | 50 to 100 | A (80-100)
2 | Cc1ccc(OCC(F)(F)F)c(N2C(=O)CS/C2=N\C(=O)Nc2ccc(NNC(=O)c3ccc(OC(F)(F)F)cc3)cc2)c1 [Compound A5, (Z)-1-(3-(5-Methyl-2-(2,2,2-trifluoroethoxy)phenyl)-4-oxothiazolidin-2-ylidene)-3-(4-(2-(4-(trifluoromethoxy)benzoyl)hydrazinyl)phenyl)urea] | 0 to 50 | 0 to 50 | B (More than 0-Less than 80)
3 | CCc1cccc(C)c1N1C(=O)CS/C1=N\C(=O)NC(C)Cc1ccc(NC(=O)Nc2ccc(C(F)(F)F)cc2)cc1 (centres unmarked) [Compound A32, (Z)-1-(4-(2-(3-(3-(2-Ethyl-6-methylphenyl)-4-oxothiazolidin-2-ylidene)ureido)propyl)phenyl)-3-(4-(trifluoromethyl)phenyl)urea] | 50 to 100 | 50 to 100 | –
4 | Cc1ccc(C(C)C)c(N2C(=O)CS/C2=N\C(=O)NCCc2ccc(NC(=O)Nc3ccc(OC(F)(F)F)cc3)cc2)c1 [Compound A8, (Z)-1-(3-(2-isopropyl-5-methylphenyl)-4-oxothiazolidin-2-ylidene)-3-(4-(3-(4-(trifluoromethoxy)phenyl)ureido)phenethyl)urea] | 50 to 100 | 50 to 100 | A (80-100)
5 | Cc1ccc(C(C)C)c(-n2ccs/c2=N\C(=O)NC(C)Cc2ccc(NC(=O)Nc3ccc(OC(F)(F)F)cc3)cc2)c1 (centres unmarked) [Compound A33, (Z)-1-(4-(2-(3-(3-(2-Isopropyl-5-methylphenyl)thiazol-2(3H)-ylidene)ureido)propyl)phenyl)-3-(4-(trifluoromethoxy)phenyl)urea] | 50 to 100 | 50 to 100 | A (80-100)
6 | CC(Cc1ccc(NC(=O)Nc2ccc(C(F)(F)F)cc2)cc1)NC(=O)/N=C1\SCC(=O)N1c1ccccc1C(C)C (centres unmarked) [Compound A28, (Z)-1-(4-(2-(3-(3-(2-Isopropylphenyl)-4-oxothiazolidin-2-ylidene)ureido)propyl)phenyl)-3-(4-(trifluoromethyl)phenyl)urea] | 50 to 100 | 50 to 100 | A (80-100)
7 | Cc1ccc(C(C)C)c(-n2ccs/c2=N\C(=O)NCCc2ccc(NC(=O)Nc3ccc(OC(F)(F)F)cc3)cc2)c1 [Compound A22, (Z)-1-(4-(2-(3-(3-(2-Isopropyl-5-methylphenyl)thiazol-2(3H)-ylidene)ureido)ethyl)phenyl)-3-(4-(trifluoromethoxy)phenyl)urea] | 50 to 100 | 50 to 100 | A (80-100)
8 | Cc1ccc(C(C)C)c(N2C(=O)CS/C2=N\C(=O)Nc2ccc(N/N=C/c3ccc(OC(F)(F)F)cc3)cc2)c1 [Compound A55, 1-((Z)-3-(2-Isopropyl-5-methylphenyl)-4-oxothiazolidin-2-ylidene)-3-(4-(2-((E)-4-(trifluoromethoxy)benzylidene)hydrazinyl)phenyl)urea] | 50 to 100 | 50 to 100 | A (80-100)
9 | CC(Cc1ccc(NC(=O)Nc2ccc(OC(F)(F)F)cc2)cc1)NC(=O)/N=C1\SCC(=O)N1c1cc(Cl)ccc1OC(F)(F)F (centres unmarked) [Compound A36, (Z)-1-(4-(2-(3-(3-(5-Chloro-2-(trifluoromethoxy)phenyl)-4-oxothiazolidin-2-ylidene)ureido)propyl)phenyl)-3-(4-(trifluoromethoxy)phenyl)urea] | 50 to 100 | 50 to 100 | A (80-100)
10 | COc1ccc(N2C(=O)CS/C2=N\C(=O)NCCc2ccc(NC(=O)Nc3ccc(OC(F)(F)F)cc3)cc2)c(C)c1 [Compound A21, (Z)-1-(4-(2-(3-(3-(4-methoxy-2-methylphenyl)-4-oxothiazolidin-2-ylidene)ureido)ethyl)phenyl)-3-(4-(trifluoromethoxy)phenyl)urea] | 50 to 100 | 50 to 100 | A (80-100)
11 | CCc1cccc(C)c1N1C(=O)CS/C1=N\C(=O)NCCc1ccc(NC(=O)Nc2ccc(OC(F)(F)F)cc2)cc1 [Compound A23, (Z)-1-(4-(2-(3-(3-(2-Ethyl-6-methylphenyl)-4-oxothiazolidin-2-ylidene)ureido)ethyl)phenyl)-3-(4-(trifluoromethoxy)phenyl)urea] | 50 to 100 | 50 to 100 | A (80-100)
12 | Cc1ccc(C(C)C)c(N2C(=O)CS/C2=N\C(=O)Nc2ccc(CCOC(=O)Nc3ccc(OC(F)(F)F)cc3)cc2)c1 [Compound A52, (Z)-4-(3-(3-(2-isopropyl-5-methylphenyl)-4-oxothiazolidin-2-ylidene)ureido)phenethyl (4-(trifluoromethoxy)phenyl)carbamate] | 50 to 100 | 50 to 100 | A (80-100)
13 | CCC(C)Oc1ccc(C)cc1N1C(=O)CS/C1=N\C(=O)NC(C)Cc1ccc(NC(=O)Nc2ccc(OC(F)(F)F)cc2)cc1 (centres unmarked) [Compound A39, (Z)-1-(4-(2-(3-(3-(2-(sec-Butoxy)-5-methylphenyl)-4-oxothiazolidin-2-ylidene)ureido)propyl)phenyl)-3-(4-(trifluoromethoxy)phenyl)urea] | 50 to 100 | 50 to 100 | D (No activity noticed in this bioassay)
14 | CCc1cccc(C)c1N1C(=O)CS/C1=N\C(=O)NCCc1ccc(NC(=O)Nc2ccc(C(F)(F)F)cc2)cc1 [Compound A11, (Z)-1-(4-(2-(3-(3-(2-Ethyl-6-methylphenyl)-4-oxothiazolidin-2-ylidene)ureido)ethyl)phenyl)-3-(4-(trifluoromethyl)phenyl)urea] | 50 to 100 | 50 to 100 | A (80-100)
15 | Cc1ccc(C(C)C)c(N2C(=O)CS/C2=N\C(=O)Nc2ccc(CCNC(=S)Nc3ccc(OC(F)(F)F)cc3)cc2)c1 [Compound A47, (Z)-1-(3-(2-isopropyl-5-methylphenyl)-4-oxothiazolidin-2-ylidene)-3-(4-(2-(3-(4-(trifluoromethoxy)phenyl)thioureido)ethyl)phenyl)urea] | 50 to 100 | 50 to 100 | A (80-100)
16 | Cc1ccc(C(C)C)c(N2C(=O)CS/C2=N\C(=O)NCCc2ccc(NC(=O)Oc3ccc(OC(F)(F)F)cc3)cc2)c1 [Compound A53, 4-(trifluoromethoxy)phenyl (Z)-(4-(2-(3-(3-(2-isopropyl-5-methylphenyl)-4-oxothiazolidin-2-ylidene)ureido)ethyl)phenyl)carbamate] | 50 to 100 | 50 to 100 | A (80-100)
17 | COc1ccc(N2C(=O)CS/C2=N\C(=O)NC(C)Cc2ccc(NC(=O)Nc3ccc(C(F)(F)F)cc3)cc2)c(C)c1 (centres unmarked) [Compound A31, (Z)-1-(4-(2-(3-(3-(4-Methoxy-2-methylphenyl)-4-oxothiazolidin-2-ylidene)ureido)propyl)phenyl)-3-(4-(trifluoromethyl)phenyl)urea] | 0 to 50 | 50 to 100 | A (80-100)
18 | CC(Cc1ccc(NC(=O)Nc2ccc(C(F)(F)F)cc2)cc1)NC(=O)/N=C1\SCC(=O)N1c1cc(Cl)ccc1C(C)C (centres unmarked) [Compound A29, (Z)-1-(4-(2-(3-(3-(5-Chloro-2-isopropylphenyl)-4-oxothiazolidin-2-ylidene)ureido)propyl)phenyl)-3-(4-(trifluoromethyl)phenyl)urea] | 50 to 100 | 50 to 100 | A (80-100)
